Test [1] has as its system Left cardiac atrium. Put plainly: Negative ionotropic activity in electrically-paced Cavia porcellus (guinea pig) left atrium measured after 60 min by isometric transducer analysis in presence of pimozide. The format is functional, tissue-based.
The test system of test [2] is Right cardiac atrium. Put plainly: Reversible negative ionotropic activity in electrically-paced Cavia porcellus (guinea pig) right atrium incubated for few seconds followed by compound washout measured after 3 hr by isometric transducer analysis in absence of benzalkonium/prazosin. Format: functional, tissue-based.
Test [3] addresses T1, Muscarinic acetylcholine receptor M1 (Homo sapiens) (UniProt P11229).
T1 sequence (whole entry): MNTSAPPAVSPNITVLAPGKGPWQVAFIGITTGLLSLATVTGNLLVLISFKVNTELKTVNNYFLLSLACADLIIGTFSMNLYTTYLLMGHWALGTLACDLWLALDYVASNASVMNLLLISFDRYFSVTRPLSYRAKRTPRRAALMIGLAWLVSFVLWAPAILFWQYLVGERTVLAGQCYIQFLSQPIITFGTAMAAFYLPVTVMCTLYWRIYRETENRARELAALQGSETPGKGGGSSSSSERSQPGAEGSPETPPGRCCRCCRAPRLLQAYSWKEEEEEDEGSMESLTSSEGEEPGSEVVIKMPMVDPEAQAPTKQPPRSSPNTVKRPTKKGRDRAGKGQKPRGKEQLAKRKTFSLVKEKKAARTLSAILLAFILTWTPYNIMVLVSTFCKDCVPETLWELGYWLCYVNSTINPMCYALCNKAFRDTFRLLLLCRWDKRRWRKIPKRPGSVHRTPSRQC
Kind of test: Allosteric modulation of Homo sapiens (human) recombinant muscarinic M1 receptor expressed in CHO cells assessed as inhibition of carbachol-induced [35S]GTPgammaS binding. The format is functional, cell-based. For orientation: GTPγS is a poorly hydrolysed GTP analogue; its binding reports G protein activation.

Test [4] addresses T2, Muscarinic acetylcholine receptor M5 (Homo sapiens) (UniProt P08912).
T2 sequence (whole entry): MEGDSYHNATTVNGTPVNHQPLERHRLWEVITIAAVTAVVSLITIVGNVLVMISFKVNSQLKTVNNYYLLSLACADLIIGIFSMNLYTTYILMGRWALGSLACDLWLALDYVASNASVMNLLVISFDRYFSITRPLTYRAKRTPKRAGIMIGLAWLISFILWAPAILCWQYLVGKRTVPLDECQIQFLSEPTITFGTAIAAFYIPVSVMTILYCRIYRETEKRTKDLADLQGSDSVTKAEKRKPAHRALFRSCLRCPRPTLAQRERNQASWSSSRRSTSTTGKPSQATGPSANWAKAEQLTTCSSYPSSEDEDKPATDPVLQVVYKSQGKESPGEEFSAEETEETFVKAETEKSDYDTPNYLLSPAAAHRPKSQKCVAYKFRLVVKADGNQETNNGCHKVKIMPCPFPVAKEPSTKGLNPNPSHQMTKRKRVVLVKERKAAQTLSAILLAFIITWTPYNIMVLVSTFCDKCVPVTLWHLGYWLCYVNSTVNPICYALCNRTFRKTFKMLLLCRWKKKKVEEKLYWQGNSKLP
Put plainly: Binding affinity to Homo sapiens (human) recombinant muscarinic M5 receptor expressed in CHO cells assessed as [35S]GTPgammaS binding. The format is functional, cell-based.

The test system of test [5] is Left cardiac atrium. Kind of test: Negative ionotropic activity in electrically-paced Cavia porcellus (guinea pig) left atrium measured immediately by isometric transducer analysis in presence of AM 251. Format: functional, tissue-based.
The subject of test [6] is Left cardiac atrium. Kind of test: Negative […] activity in electrically-paced Cavia porcellus (guinea pig) left atrium measured immediately by isometric transducer analysis in presence of benzalkonium/prazosin relative to arecaidine propargyl ester. Format: functional.
Test [7] deals with Left cardiac atrium. Kind of test: Negative ionotropic activity in electrically-paced Cavia porcellus (guinea pig) left atrium measured immediately by isometric transducer analysis in absence of benzalkonium/prazosin relative to arecaidine propargyl ester. Format: functional.
Test [8] concerns Right cardiac atrium. Put plainly: Negative […] activity in electrically-paced Cavia porcellus (guinea pig) right atrium assessed as effect on rate measured immediately by isometric transducer analysis in absence of benzalkonium/prazosin relative to arecaidine propargyl ester. The format is functional.
For test [9], the system named is Right cardiac atrium. Kind of test: Negative […] activity in electrically-paced Cavia porcellus (guinea pig) right atrium assessed as effect on rate measured immediately by isometric transducer analysis in absence of benzalkonium/prazosin. The format is functional, tissue-based.
The test system of test [10] is Right cardiac atrium. Put plainly: Negative ionotropic activity in electrically-paced Cavia porcellus (guinea pig) right atrium measured after 60 min by isometric transducer analysis in presence of prazosin. Format: functional, tissue-based.
In test [11] the test system is Left cardiac atrium. Kind of test: Negative ionotropic activity in electrically-paced Cavia porcellus (guinea pig) left atrium measured after 60 min by isometric transducer analysis in presence of 4-DAMP mustard. Format: functional, tissue-based.
The test system of test [12] is Left cardiac atrium. Kind of test: Negative […] activity in electrically-paced Cavia porcellus (guinea pig) left atrium measured immediately by isometric transducer analysis in presence of pimozide. Format: functional, tissue-based.
Test [13] has as its system Left cardiac atrium. Kind of test: Negative […] activity in electrically-paced Cavia porcellus (guinea pig) left atrium measured immediately by isometric transducer analysis in presence of thioperamide. Format: functional, tissue-based.
Test [14] relates to Left cardiac atrium. Kind of test: Negative […] activity in electrically-paced Cavia porcellus (guinea pig) left atrium measured immediately by isometric transducer analysis in presence of naloxane. Format: functional, tissue-based.
In test [15] the test system is Left cardiac atrium. Kind of test: Negative […] activity in electrically-paced Cavia porcellus (guinea pig) left atrium measured immediately by isometric transducer analysis in presence of dihydroergocristine. The format is functional, tissue-based.
Test [16] concerns Right cardiac atrium. Put plainly: Negative ionotropic activity in electrically-paced Cavia porcellus (guinea pig) right atrium measured immediately by isometric transducer analysis in presence of methoctramine. Format: functional, tissue-based.
Test [17] deals with Right cardiac atrium. Kind of test: Negative […] activity in electrically-paced Cavia porcellus (guinea pig) right atrium measured immediately by isometric transducer analysis in presence of atropine. The format is functional, tissue-based.
Test [18] relates to Right cardiac atrium. Kind of test: Negative […] activity in electrically-paced Cavia porcellus (guinea pig) right atrium measured immediately by isometric transducer analysis in presence of 4-DAMP mustard. The format is functional, tissue-based.
The test system of test [19] is Right cardiac atrium. Put plainly: Negative […] activity in electrically-paced Cavia porcellus (guinea pig) right atrium measured immediately by isometric transducer analysis in presence of AM 630. The format is functional, tissue-based.
For test [20], the system named is Right cardiac atrium. Put plainly: Negative […] activity in electrically-paced Cavia porcellus (guinea pig) right atrium measured immediately by isometric transducer analysis in presence of benextramine. Format: functional, tissue-based.
The test system of test [21] is Right cardiac atrium. Put plainly: Negative ionotropic activity in electrically-paced Cavia porcellus (guinea pig) right atrium measured immediately by isometric transducer analysis in presence of pimozide. Format: functional, tissue-based.
The subject of test [22] is Right cardiac atrium. Kind of test: Negative ionotropic activity in electrically-paced Cavia porcellus (guinea pig) right atrium measured immediately by isometric transducer analysis in presence of thioperamide. The format is functional, tissue-based.
Test [23] relates to Right cardiac atrium. Put plainly: Negative […] activity in electrically-paced Cavia porcellus (guinea pig) right atrium measured immediately by isometric transducer analysis in presence of […]. Format: functional, tissue-based.
For test [24], the system named is Right cardiac atrium. Kind of test: Negative ionotropic activity in electrically-paced Cavia porcellus (guinea pig) right atrium measured immediately by isometric transducer analysis in presence of dihydroergocristine. The format is functional, tissue-based.
The subject of test [25] is Left cardiac atrium. Put plainly: Negative […] activity in electrically-paced Cavia porcellus (guinea pig) left atrium measured immediately by isometric transducer analysis in presence of benzalkonium. The format is functional, tissue-based.
Test [26] concerns Right cardiac atrium. Kind of test: Reversible negative ionotropic activity in electrically-paced Cavia porcellus (guinea pig) right atrium incubated for 30 min followed by compound-washout measured after 3 hr by isometric transducer analysis. Format: functional, tissue-based.
Test [27] has as its system Right cardiac atrium. Put plainly: Negative […] activity in electrically-paced Cavia porcellus (guinea pig) right atrium assessed as effect on force measured after 60 min by isometric transducer analysis in absence of benextramine/4-DAMP mustard. Format: functional, tissue-based. To be noted: 1 h.
Test [28] deals with Right cardiac atrium. Kind of test: Negative ionotropic activity in electrically-paced Cavia porcellus (guinea pig) right atrium assessed as effect on force measured immediately by isometric transducer analysis in presence of benzalkonium/prazosin. Format: functional, tissue-based.
Test [29] deals with Right cardiac atrium. Kind of test: Negative ionotropic activity in electrically-paced Cavia porcellus (guinea pig) right atrium assessed as effect on force measured immediately by isometric transducer analysis in absence of benzalkonium/prazosin relative to arecaidine propargyl ester. Format: functional.

pEC50: −log10 of the molar value. Calls of active or inactive are those of the source. The rule behind the calls is not given here.

This is an account of results in ChEMBL document CHEMBL3044753, “Polyamines May Modulate Both G Protein-Coupled Receptors and G Proteins” (Med Chem Res, 2004).

Turning to `COc1ccccc1CN1CCC(C2CCN(C(=O)CCCCCCC(=O)N3CCC(C4CCN(Cc5ccccc5OC)CC4)CC3)CC2)CC1` [PIPERTRAMINE AMIDE], the result (with Left cardiac atrium [1]; in the test with Right cardiac atrium [2]; in [3]; with Left cardiac atrium [5]; with Right cardiac atrium [10]; in the test on Left cardiac atrium [11]) was Active. Besides, the outcome in the test with Left cardiac atrium [12], in the test on Left cardiac atrium [13], with Left cardiac atrium [14], in the test on Left cardiac atrium [15], in the test with Right cardiac atrium [19] and with Right cardiac atrium [20] was Active. Besides, the result in the test on Right cardiac atrium [21], in the test on Right cardiac atrium [22], with Right cardiac atrium [23], in the test with Right cardiac atrium [24] and with Left cardiac atrium [25] was Active. Further, the result (in test [4]; in the test with Right cardiac atrium [16]; with Right cardiac atrium [17]; with Right cardiac atrium [18]; with Right cardiac atrium [26]) was inactive. Further, the Efficacy is reported as 60% with Left cardiac atrium [6], 58% in the test with Left cardiac atrium [7], 37% in the test with Right cardiac atrium [8] and 79% in the test with Right cardiac atrium [29]. The pEC50 (in general, the EC50 on a negative log10 scale, so that one unit is a factor of ten) in the test with Right cardiac atrium [9] is 9.01; in the test with Right cardiac atrium [27], 8.41; in the test on Right cardiac atrium [28] it was 8.64.
As for `COc1ccccc1CN1CCC(C2CCN(CCCCCCCCN3CCC(C4CCN(Cc5ccccc5OC)CC4)CC3)CC2)CC1` [PIPERTRAMINE], the outcome (in the test with Left cardiac atrium [1]; in test [3]; in the test on Right cardiac atrium [10]; in the test with Left cardiac atrium [11]) was Active. Besides, the outcome (in [4]; in the test with Right cardiac atrium [26]) was inactive. For the same compound, in the test with Right cardiac atrium [27], the pEC50 is 9.56.
